We go through four molecules from the NIST ThermoML archive (doi:10.1016/j.fluid.2007.09.001).

By refractive index is commonly meant the speed of light in vacuum divided by its phase velocity in the sample.

Numbers after ± are expanded uncertainties.

Experiment in the first series: not given
The following applies: Liquid; Ebulliometric method (Recirculating still).
For the molecule `CC(O)C(C)O` (stereo not drawn) [2,3-butanediol], the Normal boiling temperature came to 181.06 ± 0.5 °C.

Turning to `CCCCO` [butan-1-ol], the Normal boiling temperature was 116.97 ± 0.5 °C.

On to `CCCCOC(C)=O` [butyl ethanoate], for which the Normal boiling temperature was found to be 125.96 ± 0.5 °C.

With `CCOC(C)=O` [ethyl acetate], the Normal boiling temperature worked out at 77.09 ± 0.5 °C.

Another series in a line: refractive index (Na D-line) (dimensionless). The settings on record: 293.15 K; 101.33 kPa; Liquid; Standard Abbe refractometry.
For the molecule `CC(O)C(C)O` (stereo not drawn) [2,3-butanediol], the refractive index is 1.4375 ± 0.0021.

In the case of `CCCCO` [butan-1-ol], the refractive index is 1.3993 ± 0.0021.

As for `CCCCOC(C)=O` [butyl ethanoate], the refractive index is 1.3941 ± 0.0021.

`CCOC(C)=O` [ethyl acetate]: the refractive index turned out to be 1.3701 ± 0.0021.
